Half-life and Papp A→B data for two compounds are collected here from ChEMBL document CHEMBL5352494, “Hybrid molecules combining GABA-A and serotonin 5-HT6 receptors activity designed to tackle neuroinflammation associated with depression” (Eur J Med Chem, 2023).

A value given as a limit tells only on which side of the number the result lay.

A short description of data set [1]: in vitro. Particulars: rat, liver microsomes.
Data set [2] in a line: in vitro. Particulars: human, Caco-2.

One may read the half-life as the time in which the quantity being followed falls by half. Low readings indicate rapid decline, high ones slow decline. For `CC(C)NCC(O)COc1cccc2ccccc12` (configuration not stated) [PROPRANOLOL], the half-life at 0.1 µM in “in vitro [1]” is > 1 h. Usually Papp A→B stands for the apparent permeability from the apical to the basolateral side of a cell layer. A low value points to poor permeation. In the data set “in vitro [2]”, `CNC(=C[N+](=O)[O-])NCCSCc1ccc(CN(C)C)o1` [RANITIDINE] yielded a Papp A→B at 10 µM of 0.3 ×10⁻⁶ cm/s.
